Patent US8119640B2, “Hedgehog pathway antagonists methods of use” (The Board of Trustees of the Leland Stanford Junior …, priority 2008, dated 2012)

Key:
[1] = system: Gli2 αPKA; experiment: Hh pathway activation by overexpressed Gli2 phosphosite mutants; assay type: cell-based; settings: NIH-3T3 cells; 15 μM HPI-1, 20 μM HPI-2
Protocol: Hh pathway activation mediated by the overexpression of Gli, Gli2, Gli2αPKA, or Gli2αGSK. […] The cells were co-transfected the following day with 220 ng/well pcDNA-derived Gli1, Gli2, or Gli2 phosphosite mutant expression vectors and 80 ng/well of a 1:15 mixture of phRLTK (Promega) and 8XGIiBS-FL. After transfection, cells were grown to confluence (approximately 48 h). The cell were then incubated for an additional 28-32 h in DMEM containing 0.5% CS, 100 U/mL penicillin, 0.1 mg/mL streptomycin, and either DMSO, 50 μM forskolin, 50 μM LY294002, or various concentrations of the HPIs. Firefly and Renilla luciferase activities were measured using a dual luciferase kit and a Veritas microplate luminometer.

[2] = system: FLAG-Gli1; experiment: Immunostaining of FLAG-Gli1 line: FLAG-Gli1 localization; assay type: cell-based, mouse; settings: Shh-LIGHT2 FLAG-Gli1 cells
Protocol: Immunostaining of FLAG-Gli lines and NIH-3T3 cells. The FLAG-Gli1-expressing or FLAG-Gli2-expressing clonal cell lines were seeded into 24-well plates (80,000 cells/well) containing poly-D-lysine-coated 12-mm glass coverslips. […] The cells were subsequently fixed in 4% paraformaldehyde for 10 min at room temperature followed by treatment with methanol at −20° C. for 2 to 5 min. The cells were washed with PBS, permeabilized with 0.2% Triton X-100 for 2 to 5 min, and then blocked with PBS containing 2% BSA for 3 h at room temperature. […] In order to quantify ciliary Gli2 localization, a circular region with diameter equal to the average width of cilia as determined by the anti-Arl13b antibody staining was manually placed at the distal end of each cilium. Regions were transferred from the anti-Arl13b antibody image to the anti-FLAG antibody image, and FLAG staining intensities within those areas were assessed. Between 40 and 80 cilia were analyzed for each condition. To normalize ciliary FLAG-Gli2 levels with respect to compound-dependent changes in total FLAG-Gli2 levels, the absolute average intensities for each condition were divided by the fold change in FLAG-Gli2 levels, as determined by the quantitative immunoblotting described above. Quantification of ciliary FLAG-Gli1 levels was performed in an analogous manner. […]

Compound | Sensitivity of overexpressed Gli2 αPKA mutant to compound [1] | Ciliary FLAG-Gli1 levels [2] | Subcellular localization of FLAG-Gli1 [2]
COCCOC(=O)C1=C(C)NC2=C(C(=O)CC(c3ccccc3OC)C2)C1c1cccc(O)c1 (mixture of isomers) [Compound 8, 4-(3-Hydroxy-phenyl)-7-(2-methoxy-phenyl)-2-methyl-5-oxo-1,4,5,6,7,8-hexahydro-quinoline-3-carboxylic acid 2-methoxy-ethyl ester] | partially resistant |  | 
N#CC(C(=O)c1ccc(Cl)cc1Cl)=C1NC(=O)c2ccccc2N1 [Compound 18] |  | promoted accumulation of FLAG-Gli1 at the distal tip of this organelle relative to total FLAG-Gli1 levels | reduced cytoplasmic levels of the transcription factor but retained nuclear FLAG-Gli1
COc1ccc(OC)c2c1cc1n2CC(C)(C(=O)NC2CCCCCCC2)N(CCN(C)C)C1=O (stereo not shown) [Compound 17] | partially resistant |  | 
